In patent US6635641B2 (Agouron Pharmaceuticals, Inc., priority 2000, dated 2003):
Structures can show the parent of a compound that is named as a salt. Where two headings read alike, the source gives them in different places. Values belong to the compound of their own block, whether it stands above or below them.

Experiments:
[1] = molecular target: T1, unphosphorylated VEGF-R2Δ50 (FLVK) (Homo sapiens, UniProt P35968, DEL940-989/E990V); experiment: VEGF-R2 coupled spectrophotometric assay, unphosphorylated construct (FLVK); type: biochemical; conditions: for inhibition at 0.05 µM: @ 50 nM; for FLVK percent inhibition: 0.05 µM;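 as to all read-outs here: Baculovirus-expressed cytosolic kinase domain, ADP formation linked via pyruvate kinase and lactate dehydrogenase to NADH oxidation, read as falling absorbance at 340 nm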
T1 construct: VEGF-R2Δ50 contains residues 806-939 and 990-1171; made in house; host or cells: baculovirus/insect cells
T1 sequence (P35968 with tags, fused parts or gaps DEL940-989/E990V limits assumed): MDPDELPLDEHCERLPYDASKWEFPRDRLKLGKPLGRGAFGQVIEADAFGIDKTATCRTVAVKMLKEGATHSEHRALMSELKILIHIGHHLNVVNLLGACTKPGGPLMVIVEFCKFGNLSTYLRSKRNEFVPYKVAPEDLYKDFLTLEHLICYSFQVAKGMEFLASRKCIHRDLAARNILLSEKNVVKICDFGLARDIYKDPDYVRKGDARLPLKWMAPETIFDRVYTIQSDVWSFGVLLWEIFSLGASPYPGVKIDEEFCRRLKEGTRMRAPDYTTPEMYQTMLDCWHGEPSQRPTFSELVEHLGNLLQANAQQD

[2] = test system: human umbilical vein endothelial cells (HUVEC); experiment: HUVEC proliferation assay (VEGF-stimulated, MTT); type: cell-based; conditions: Homo sapiens
Experimental: This assay determines the ability of a test compound to inhibit the growth factor-stimulated proliferation of human umbilical vein endothelial cells (“HUVEC”). HUVEC cells (passage 3-4, Clonetics, Corp.) were thawed into EGM2 culture medium (Clonetics Corp) in T75 flasks. Fresh EGM2 medium was added to the flasks 24 hours later. Four or five days later, cells were exposed to another culture medium (F12K medium supplemented with 10% fetal bovine serum (FBS), 60 μg/ml endothelial cell growth supplement (ECGS), and 0.1 mg/ml heparin). Exponentially-growing HUVEC cells were used in experiments thereafter. Ten to twelve thousand HUVEC cells were plated in 96-well dishes in 100 μl of rich, culture medium (described above). The cells were allowed to attach for 24 hours in this medium. The medium was then removed by aspiration and 105 μl of starvation media (F12K+1% FBS) was added to each well. After 24 hours, 15 μl of test agent dissolved in 1% DMSO in starvation medium or this vehicle alone was added into each treatment well; the final DMSO concentration was 0.1%. One hour later, 30 μl of VEGF (30 ng/ml) in starvation media was added to all wells except those containing untreated controls; the final VEGF concentration was 6 ng/ml. Cellular proliferation was quantified 72 hours later by MTT dye reduction, at which time cells were exposed for 4 hours MTT (Promega Corp.). Dye reduction was stopped by addition of a stop solution (Promega Corp.) and absorbance at 595 λ was determined on a 96-well spectrophotometer plate reader.

[3] = molecular target: T2, phosphorylated VEGF-R2Δ50 (FLVK-P) (Homo sapiens, UniProt P35968, DEL940-989/E990V); experiment: VEGF-R2 coupled spectrophotometric assay, phosphorylated construct (FLVK-P); type: biochemical
T2 construct: VEGF-R2Δ50 contains residues 806-939 and 990-1171; made in house; host or cells: baculovirus/insect cells
T2 sequence (P35968 with tags, fused parts or gaps DEL940-989/E990V limits assumed): as above
Source text: A construct (VEGF-R2Δ50) of the cytosolic domain of human vascular endothelial growth factor receptor 2 (VEGF-R2) lacking the 50 central residues of the 68 residues of the kinase insert domain was expressed in a baculovirus/insect cell system. Of the 1356 residues of full-length VEGF-R2, VEGF-R2Δ50 contains residues 806-939 and 990-1171, and also one point mutation (E990V) within the kinase insert domain relative to wild-type VEGF-R2. See commonly assigned, co-pending U.S. patent application Ser. No. 09/390,326, filed Sep. 7, 1999, incorporated by reference herein, for discussion of VEGF constructs and expression systems. Autophosphorylation of the purified construct was performed by incubation of the enzyme at a concentration of 4 μM in the presence of 3 mM ATP and 40 mM MgCl2 in 100 mM Hepes, pH 7.5, containing 5% glycerol and 5 mM DTT, at 4° C. for 2 h. […] See Parast et al., Biochemistry, 37, 16788-16801 (1998).
The production of ADP from ATP that accompanies phosphoryl transfer was coupled to oxidation of NADH using phosphoenolpyruvate (PEP) and a system having pyruvate kinase (PK) and lactic dehydrogenase (LDH). The oxidation of NADH was monitored by following the decrease of absorbance at 340 nm (e340=6.22 cm^−1 mM^−1) using a Beckman DU 650 spectrophotometer. Assay conditions for phosphorylated VEGF-R2Δ50 (indicated as FLVK-P in the tables below) were the following: 1 mM PEP; 250 μM NADH; 50 units of LDH/mL; 20 units of PK/mL; 5 mM DTT; 5.1 mM poly(E4Y1); 1 mM ATP; and 25 mM MgCl2 in 200 mM Hepes, pH 7.5. Assay conditions for unphosphorylated VEGF-R2Δ50 (indicated as FLVK in the tables) were the following: 1 mM PEP; 250 μM NADH; 50 units of LDH/mL; 20 units of PK/mL; 5 mM DTT; 20 mM poly(E4Y1); 3 mM ATP; and 60 mM MgCl2 and 2 mM MnCl2 in 200 mM Hepes, pH 7.5. Assays were initiated with 5 to 40 nM of enzyme. Ki values were determined by measuring enzyme activity in the presence of varying concentrations of test compounds. The data were analyzed using Enzyme Kinetic and Kaleidagraph software.

[4] = read-out: FLVK percent inhibition
[5] = unphosphorylated VEGF-R2 construct

Compound: O=C(Nc1ccc(-n2cncn2)c(C(F)(F)F)c1)c1ccc(F)c(OCc2cccnc2)c1 [Example R-23, 4-Fluoro-3-(pyridin-3-ylmethoxy)-N-(4-[1,2,4]triazol-1-yl-3-trifluoromethyl-phenyl)-benzamide]
inhibition at 0.05 µM [1, 4]: 50%

Compound: COc1ccc(Nc2cc(CCc3cccc(C(=O)Nc4ccc(N5CCN(C(=O)OC(C)(C)C)CC5)c(C(F)(F)F)c4)c3)[nH]n2)cn1 [Example G-9, 3-{2-[5-(6-Methoxypyridin-3-yl)amino-2H-pyrazol-3-yl]-ethyl}-N-[4-(4-t-butoxycarbonylpiperazin-1-yl)-3-trifluoromethylphenyl]benzamide]
Ki [1]: 2.5 nM

Compound: Cl.Cl.NC(=O)c1cncc(CCc2cccc(C(=O)Nc3ccc(N4CCNCC4)c(C(F)(F)F)c3)c2)c1 [CC-1, 5-{2-[3-(Piperazin-1-yl-trifluoromethyl-phenylcarbamoyl)-phenyl]-ethyl}-nicotinamide dihydrochloride]
FLVK percent inhibition [1]: 20% @

Compound: O=C(Nc1cccc(CSc2ncnc3[nH]ncc23)c1)c1ccc(Oc2ccccc2)cc1 [Example V-6, N-{3-[(1H-pyrazolo[3,4-d]-pyrimidin-4-yl)sulfanylmethyl]phenyl}-(4-phenoxy)benzamide]
inhibition at 0.05 µM [1, 4]: 12%

Compound: CC(C)(C)c1cc(C(=O)Nc2cccc(CSc3ncnc4[nH]ncc34)c2)cc(C(C)(C)C)c1 [Example V-9, N-{3-[(1H-pyrazolo[3,4-d]-pyrimidin-4-yl)sulfanylmethyl]phenyl}-(3,5-di-t-butyl)benzamide]
Ki [1, 5]: 22 nM

Compound: CC(C)c1cccc(NC(=O)c2cccc(CSc3cnccn3)c2)c1 [Example A-7, N-(3-Isopropylphenyl)-3-[(pyrazin-2-yl)sulfanylmethyl]benzamide]
Ki [3]: 26 nM
IC50 ([2]; HUVEC, read-out: HUVEC IC50): > 700 nM

Compound: O=C(Nc1cccc(CSc2ncnc3[nH]ncc23)c1)c1ccc2ncccc2c1 [Example V-11, N-{3-[(1H-pyrazolo[3,4-d]-pyrimidin-4-yl)sulfanylmethyl]phenyl}-quinoline-6-carboxamide]
inhibition at 0.05 µM [1, 4]: 18%

Compound: O=C(Nc1cc(Cl)c(-n2ccnc2)c(Cl)c1)c1ccc(F)c(OCc2cccnc2)c1 [Example R-24, N-(3,5-Dichloro-4-imidazol-1-yl-phenyl)-4-fluoro-3-(pyridin-3-ylmethoxy)-benzamide]
inhibition at 0.05 µM [1, 4]: 62%

Compound: O=C(Nc1cccnc1)Nc1cccc(CSc2ncnc3[nH]ncc23)c1 [Example V-8, N-{3-[(1H-pyrazolo[3,4-d]pyrimidin-4-ylsulfanyl)methyl]phenyl}-N′-(pyridin-3-yl)urea]
inhibition at 0.05 µM [1, 4]: 0%

Compound: O=C(Nc1cccc(CSc2ncnc3[nH]ncc23)c1)c1cc2cc(F)ccc2[nH]1 [Example V-12, 5-Fluoro-N-{3-[(1H-pyrazolo[3,4-d]-pyrimidin-4-yl)sulfanylmethyl]-phenyl}-indole-2-carboxamide]
inhibition at 0.05 µM [1, 4]: 18%

Compound: 5-{2-[3-(Piperazin-1-yl-trifluoromethyl-phenylcarbamoyl)-phenyl]-ethyl}nicotinic acid methyl ester dihydrochloride [CC-2]
FLVK percent inhibition [1]: 30% @

Now from value to compound, other results behind:

inhibition at 0.05 µM [1, 4]: 42%
Compound: O=C(Nc1ccc(-n2ccnc2)c(C(F)(F)F)c1)c1ccc(F)c(OCc2cccnc2)c1 [Example R-21, 4-Fluoro-N-(4-imidazol-1-yl-3-trifluoromethyl-phenyl)-3-(pyridin-3-ylmethoxy)-benzamide]

inhibition at 0.05 µM [1, 4]: 19%
Compound: Cc1cc(NC(=O)c2cc(CCc3cncc4ccccc34)c(F)cc2Cl)ccc1C(C)C [Example S-7, 2-Chloro-4-fluoro-N-(4-isopropyl-3-methyl-phenyl)-5-(2-isoquinolin-4-yl-ethyl)-benzamide]
IC50 ([2]; HUVEC, read-out: HUVEC IC50): > 300 nM

Ki [3]: 4.2 nM
Compound: Cc1c(Br)cc(NC(=O)c2cccc(CCc3cncc4ccccc34)c2)cc1Br [Example S-5, N-(3,5-Dibromo-4-methyl-phenyl)-3-(2-isoquinolin-4-yl-ethyl)-benzamide]
IC50 ([2]; HUVEC, read-out: HUVEC IC50): > 300 nM

Ki [1, 5]: 25 nM
Compound: Nc1ccc(CCc2cccc(C(=O)Nc3ccc(N4CCNCC4)c(C(F)(F)F)c3)c2)cn1 [AA-2, 3-[2-(6-Amino-pyridin-3-yl)-ethyl]-N-(4-piperazin-1-yl-3-trifluoromethyl-phenyl)-benzamide dihydrochloride]
IC50 ([2]; HUVEC proliferation with albumin, read-out: Huvec + Albumin IC50): 80 nM

Ki [1]: 7.4 nM
Compound: O=C(Nc1ccc(N2CCNCC2)c(C(F)(F)F)c1)c1ccc(F)c(OCc2cnc3ccccc3c2)c1 [Example R-17, 4-Fluoro-N-(4-piperazin-1-yl-3-trifluoromethyl-phenyl)-3-(quinolin-3-ylmethoxy)-benzamide]
IC50 ([2]; HUVEC, read-out: HUVEC IC50): 32 nM

Ki [1, 5]: 1.4 nM
Compound: CC(C)(C)c1ccc(C(=O)Nc2cccc(CSc3ncnc4[nH]ncc34)c2)cc1 [Example V-5, N-{3-[(1H-pyrazolo[3,4-d]-pyrimidin-4-yl)sulfanylmethyl]phenyl}-4-t-butylbenzamide]

inhibition at 0.05 µM [1, 4]: 30%
Compound: CCC(C(=O)Nc1cccc(CSc2ncnc3[nH]ncc23)c1)c1ccccc1C (racemic) [Example V-15]

Ki [1]: 5.8 nM
Compound: CC1CCc2cc(NC(=O)c3ccc(F)c(OCc4cncc5ccccc45)c3)ccc2N1 (centres unmarked) [Example O-3, 4-Fluoro-N-(2-methyl-1,2,3,4-tetrahydroquinolin-6-yl)-3-(isoquinolin-4-yl-methoxy)-benzamide bistrifluoroacetic acid salt]

Ki [1]: 1.4 nM
Compound: Cc1cc(NC(=O)c2cc(CCc3cncc4ccccc34)c(F)cc2F)ccc1C(C)C [Example S-8, 2,4-Difluoro-N-(4-isopropyl-3-methyl-phenyl)-5-(2-isoquinolin-4-yl-ethyl)-benzamide]

inhibition at 0.05 µM ([3]; @ 50 nM, read-out: FLVK-P percent inhibition): 20%
Compound: Cc1ccc2cc(NC(=O)c3cccc(CCc4cncc5ccccc45)c3)ccc2n1 [Example S-4, 3-(2-Isoquinolin-4-yl-ethyl)-N-(2-methyl-quinolin-6-yl)-benzamide]
IC50 ([2]; HUVEC, read-out: HUVEC IC50): > 300 nM

inhibition at 50 µM ([1]; @ 50 μM, read-out: FLVK percent inhibition): 16%
Compound: O=C(Nc1cccc(CSc2ncnc3[nH]ncc23)c1)c1ccc(O)c(Br)c1 [Example V-10, 3-Bromo-4-hydroxy-N-{3-[(1H-pyrazolo[3,4-d]-pyrimidin-4-yl)sulfanylmethyl]phenyl}-benzamide]

Ki [1]: 2 nM
Compound: Cc1ccc(C(=O)Nc2cccc(CSc3ncnc4[nH]ncc34)c2)cc1Br [Example V-1]

inhibition at 0.05 µM [1, 4]: 17%
Compound: O=C(Nc1cccc(CSc2ncnc3[nH]ncc23)c1)c1ccc2cc[nH]c2c1 [Example V-13, N-{3-[(1H-pyrazolo[3,4-d]-pyrimidin-4-yl)sulfanylmethyl]phenyl}-indole-6-carboxamide]

inhibition at 0.05 µM [1, 4]: 13%
Compound: O=C(Nc1cccc2c1OC(F)(F)O2)c1cccc(CCc2cncc3ccccc23)c1 [Example O-2, N-(2,2-Difluoro-benzo[1,3]dioxol-4-yl)-3-(2-isoquinolin-4-yl-ethyl)-benzamide trifluoro-acetic acid salt]

Ki [1, 5]: 2.6 nM
Compound: O=C(Nc1cccc(CSc2ncnc3[nH]ncc23)c1)Nc1cc(C(F)(F)F)cc(C(F)(F)F)c1 [Example V-7, N-{3-[(1H-pyrazolo[3,4-d]pyrimidin-4-ylsulfanyl)methyl]phenyl}-N′-[3,5-bis-(trifluoromethyl)phenyl]urea]
